Laboratory results from ChEMBL document CHEMBL1201862, “PubChem BioAssay data set” (2004).
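96-well plates; 48 h exposure; 5 concentrations. Endpoints by linear interpolation between flanking doses. Not reached: highest tested concentration assigned. The concentration for 50% growth inhibition is given as GI50.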 Activity calls are given as the source filed them. No stated cut-off is given here; in the data, active = GI50 up to about 1.1 µM and inactive = higher.

What was measured:
Experiment in all cases: NCI tumour cell line growth inhibition, 48 h
BT-549 = test system: BT-549
CAKI-1 = test system: CAKI-1
CCRF-CEM = test system: CCRF-CEM
DU-145 = test system: DU-145
HCT-15 = test system: HCT-15
HOP-62 = test system: HOP-62
HOP-92 = test system: HOP-92
LOX IMVI = test system: LOX IMVI
M14 = test system: M14
MCF7 = test system: MCF7
OVCAR-3 = test system: OVCAR-3
PC-3 = test system: PC-3
RPMI-8226 = test system: RPMI-8226
SK-MEL-5 = test system: SK-MEL-5
TK-10 = test system: TK-10
HCT-116 = test system: HCT-116
KM-20L2 = test system: KM-20L2
M19-MEL = test system: M19-MEL
SK-OV-3 = test system: SK-OV-3
HOP-18 = test system: HOP-18

SMILES	GI50 (BT-549)	GI50 (CAKI-1)	GI50 (CCRF-CEM)	GI50 (DU-145)	GI50 (HCT-15)	GI50 (HOP-62)	GI50 (HOP-92)	GI50 (LOX IMVI)	GI50 (M14)	GI50 (MCF7)	GI50 (OVCAR-3)	GI50 (PC-3)	GI50 (RPMI-8226)	GI50 (SK-MEL-5)	GI50 (TK-10)	GI50 (HCT-116)	GI50 (KM-20L2)	GI50 (M19-MEL)	GI50 (SK-OV-3)	GI50 (HOP-18)
O[C@@]12Cc3c([nH]c4ccccc34)[C@@H]3Oc4cccc5c4[C@@]31CCN(CC1CC1)[C@@H]2C5	19.8 µM (inactive)	19.2 µM (inactive)	11.3 µM (inactive)	27 µM (inactive)	18.1 µM	31.8 µM (inactive)	12.4 µM (inactive)	18.9 µM (inactive)	23.7 µM (inactive)	17.5 µM (inactive)	22.3 µM (inactive)	17 µM (inactive)	19.4 µM (inactive)	24.3 µM (inactive)	19.2 µM (inactive)					
c1ccc(CCn2cncn2)cc1			> 100 µM (inactive)		> 100 µM	> 100 µM (inactive)	> 100 µM (inactive)		> 100 µM (inactive)		> 100 µM (inactive)			> 100 µM (inactive)	> 100 µM (inactive)	> 100 µM (inactive)	> 100 µM (inactive)	> 100 µM (inactive)	> 100 µM (inactive)	
O=C1N/C(=N/N=C/c2c[nH]c3ccccc23)N/C1=C\c1cccs1	> 100 µM (inactive)	> 100 µM (inactive)	4.44 µM (inactive)	> 100 µM (inactive)	> 100 µM	> 100 µM (inactive)	49 µM (inactive)	56.9 µM (inactive)	75.3 µM (inactive)	41.4 µM (inactive)	30.7 µM (inactive)	16.1 µM (inactive)	40.4 µM (inactive)	70.3 µM (inactive)	> 100 µM (inactive)	53.8 µM (inactive)			38.6 µM (inactive)	
CCSc1nc(N/N=C/c2cccs2)c2cnn(CO)c2n1		2.66 µM (inactive)		10.3 µM (inactive)	4.88 µM	4.25 µM (inactive)	16.9 µM (inactive)		6.11 µM (inactive)	3.59 µM (inactive)	5.86 µM (inactive)	6.58 µM (inactive)		3.46 µM (inactive)	6.14 µM (inactive)	5.01 µM (inactive)			14.6 µM (inactive)	
COc1cc2c(cc1OC)-c1cc3ccccc3c[n+]1CC2	54.7 µM (inactive)	> 100 µM (inactive)	> 100 µM (inactive)	> 100 µM (inactive)		> 100 µM (inactive)	> 100 µM (inactive)	> 100 µM (inactive)	> 100 µM (inactive)	70.3 µM (inactive)	51.5 µM (inactive)	> 100 µM (inactive)	36.6 µM (inactive)	22.9 µM (inactive)	> 100 µM (inactive)	> 100 µM (inactive)			> 100 µM (inactive)	
CCCCCCCCCCCCCCCCCc1cc(Cl)nc(Cl)n1	> 100 µM (inactive)		> 100 µM (inactive)		> 100 µM	> 100 µM (inactive)		> 100 µM (inactive)	> 100 µM (inactive)	36.6 µM (inactive)	> 100 µM (inactive)	> 100 µM (inactive)	43.7 µM (inactive)	> 100 µM (inactive)	> 100 µM (inactive)				> 100 µM (inactive)	
N#Cc1ccc(-c2nc(C#N)c(N)o2)cc1	> 10 µM (inactive)	> 10 µM (inactive)	> 10 µM (inactive)	> 10 µM (inactive)	> 10 µM	> 10 µM (inactive)	> 10 µM (inactive)	> 10 µM (inactive)	> 10 µM (inactive)	> 10 µM (inactive)		> 10 µM (inactive)	> 10 µM (inactive)	> 10 µM (inactive)	> 10 µM (inactive)	> 10 µM (inactive)			> 10 µM (inactive)	
CCOC(=O)/C=C(\C)c1ccc(Cl)cc1		> 100 µM (inactive)	> 100 µM (inactive)		> 100 µM		> 100 µM (inactive)	> 100 µM (inactive)	> 100 µM (inactive)				> 100 µM (inactive)		> 100 µM (inactive)	> 100 µM (inactive)	> 100 µM (inactive)			> 100 µM (inactive)
O=C(Nc1cccc(O)c1)C(=O)C(C(=O)c1ccccc1F)C1OC(=O)c2ccccc21 (configuration not stated)		32.9 µM (inactive)	18.3 µM (inactive)		18.3 µM	29.9 µM (inactive)	68.1 µM (inactive)	22.9 µM (inactive)	23.5 µM (inactive)				23.4 µM (inactive)	36.1 µM (inactive)	58.9 µM (inactive)	18 µM (inactive)	25.7 µM (inactive)	18.1 µM (inactive)	36.1 µM (inactive)	
CSc1cc(-c2cc3ccccc3o2)oc(=O)c1C#N		8.13 µM (inactive)	> 100 µM (inactive)		> 100 µM		0.301 µM (active)	> 100 µM (inactive)	> 100 µM (inactive)				27.7 µM (inactive)	> 100 µM (inactive)	21.8 µM (inactive)	> 100 µM (inactive)	> 100 µM (inactive)			0.637 µM (active)
CN(CCCNc1ccc2ncn3c4ccccc4c(=O)c1c23)CCCN1C(=O)c2cccc3cc([N+](=O)[O-])cc(c23)C1=O	0.106 µM (active)	0.029 µM (active)	0.0614 µM (active)		0.0153 µM	0.0472 µM (active)	1.04 µM (active)	0.00771 µM (active)	0.0481 µM (active)	0.00541 µM (active)	1.1 µM (active)	1.14 µM (inactive)	0.0132 µM (active)	0.01 µM (active)	0.00221 µM (active)	0.00174 µM (active)			1.28 µM (inactive)	
O=C1Sc2ccccc2/C1=N/Nc1ccccc1[N+](=O)[O-]		77.3 µM (inactive)	> 100 µM (inactive)	> 100 µM (inactive)	> 100 µM	> 100 µM (inactive)	> 100 µM (inactive)	> 100 µM (inactive)	> 100 µM (inactive)	17 µM (inactive)	> 100 µM (inactive)	> 100 µM (inactive)	> 100 µM (inactive)	65.2 µM (inactive)	> 100 µM (inactive)	> 100 µM (inactive)			86.9 µM (inactive)	
O=C1C(=O)c2ccccc2C=C1[N+](=O)[O-]	> 100 µM (inactive)	87.9 µM (inactive)	27.9 µM (inactive)	49 µM (inactive)	32.7 µM	> 100 µM (inactive)	55.8 µM (inactive)	25.8 µM (inactive)	71.1 µM (inactive)	22.9 µM (inactive)	23.4 µM (inactive)	48.2 µM (inactive)	31 µM (inactive)	17 µM (inactive)	> 100 µM (inactive)	26.2 µM (inactive)			> 100 µM (inactive)	
O=C1CNc2cc(N3CCCCC3)ccc2N1	> 100 µM (inactive)		99.5 µM (inactive)	> 100 µM (inactive)	> 100 µM	> 100 µM (inactive)	> 100 µM (inactive)		66.1 µM (inactive)	> 100 µM (inactive)	> 100 µM (inactive)	> 100 µM (inactive)	> 100 µM (inactive)	43.8 µM (inactive)	> 100 µM (inactive)				> 100 µM (inactive)	
